Laboratory results from patent US9073821B2, “Hydroxamic acid derivative” (priority 2010, dated 2015).

Each compound was assayed against Pseudomonas aeruginosa LpxC enzyme (Pseudomonas aeruginosa (strain ATCC 15692 / DSM 22644 / CIP 104116 / JCM 14847 / LMG 12228 / 1C / PRS 101 / PAO1), UniProt P47205) (assay: biochemical). Conditions: inhibitory activity on Pseudomonas aeruginosa LpxC enzyme, class symbols A/B/C; read-out: Enzyme inhibitory activity.
Assay type: biochemical
Protocol: Test 1: Evaluation of the Inhibitory Activity on Pseudomonas aeruginosa LpxC Enzyme
An inhibition curve was constructed for each test compound by performing the aforementioned reaction at varying concentrations of the test compound. From this inhibition curve, the concentration of the test compound at which the formation of the reaction product was suppressed by 50% was determined as the IC50 of the test compound, which was an index for the inhibitory activity on Pseudomonas aeruginosa LpxC enzyme.

SMILES	IC50 [nM]
O=C(NC(C(=O)NO)C(=O)NCC1CC1)c1ccc(-c2ccc(OCCO)cc2)cc1 (stereo not drawn) [Compound 9, N-(cyclopropylmethyl)-N′-hydroxy-2-({[4′-(2-hydroxyethoxy)biphenyl-4-yl]carbonyl}amino)propanediamide]	10 to 100
CC(C)OCCNC(=O)C(NC(=O)c1ccc(-c2ccc(OCCO)cc2)cc1)C(=O)NO (stereo not drawn) [Compound 10, N-hydroxy-2-({[4′-(2-hydroxyethoxy)biphenyl-4-yl]carbonyl}amino)-N′-[2-(propan-2-yloxy)ethyl]propanediamide]	10 to 100
O=C(NC(C(=O)NO)C(=O)NCc1cncs1)c1ccc(-c2ccc(OCCO)cc2)cc1 (stereo not drawn) [Compound 11, N-hydroxy-2-({[4′-(2-hydroxyethoxy)biphenyl-4-yl]carbonyl}amino)-N′-(1,3-thiazol-5-ylmethyl)propanediamide]	< 10
O=C(NC(C(=O)NO)C(=O)NCc1ccco1)c1ccc(-c2ccc(OCCO)cc2)cc1 (stereo not drawn) [Compound 12, N-(furan-2-ylmethyl)-N′-hydroxy-2-({[4′-(2-hydroxyethoxy)biphenyl-4-yl]carbonyl}amino)propanediamide]	< 10
CNC(=O)C(NC(=O)c1ccc(-c2ccc(OCCOCCOCCO)cc2)cc1)C(=O)NO (stereo not drawn) [Compound 13, N-hydroxy-2-{[(4′-{2-[2-(2-hydroxyethoxy)ethoxy]ethoxy}biphenyl-4-yl)carbonyl]amino}-N′-methylpropanediamide]	10 to 100
CNC(=O)C(NC(=O)c1ccc(-c2ccc(OCCOCCO)cc2)cc1)C(=O)NO (stereo not drawn) [Compound 14, N-hydroxy-2-[({4′-[2-(2-hydroxyethoxy)ethoxy]biphenyl-4-yl}carbonyl)amino]-N′-methylpropanediamide]	< 10
CNC(=O)C(C(=O)NO)N(C)C(=O)c1ccc(-c2ccc(OCCOCCO)cc2)cc1 (stereo not drawn) [Compound 15, N-hydroxy-2-[({4′-[2-(2-hydroxyethoxy)ethoxy]biphenyl-4-yl}carbonyl)(methyl)amino]-N′-methylpropanediamide]	10 to 100
CNC(=O)C(NC(=O)c1ccc(OC(F)(F)F)cc1)C(=O)NO (stereo not drawn) [Compound 16, N-hydroxy-N′-methyl-2-{[4-(trifluoromethoxy)benzoyl]amino}propanediamide]	> 100
CNC(=O)C(C(=O)NO)N(OC)C(=O)c1ccc(-c2ccccc2)cc1 (stereo not drawn) [Compound 17, 2-[(biphenyl-4-ylcarbonyl)(methoxy)amino]-N-hydroxy-N′-methylpropanediamide]	10 to 100
CNC(=O)C(C(=O)NO)N(C)C(=O)c1ccc(-c2ccccc2C)cc1 (stereo not drawn) [Compound 18, N-hydroxy-N′-methyl-2-{methyl[(2′-methylbiphenyl-4-yl)carbonyl]amino}propanediamide]	10 to 100
CNC(=O)C(C(=O)NO)N(C)C(=O)c1ccc(-c2ccc3c(ccn3C)c2)cc1 (stereo not drawn) [Compound 19, N-hydroxy-N′-methyl-2-{methyl[4-(1-methyl-1H-indol-5-yl)benzoyl]amino}propanediamide]	< 10
CNC(=O)C(C(=O)NO)N(C)C(=O)c1ccc(-c2ccc(NCCCCO)cc2)cc1 (stereo not drawn) [Compound 20, N-hydroxy-2-[({4′-[(4-hydroxybutyl)amino]biphenyl-4-yl}carbonyl)(methyl)amino]-N′-methylpropanediamide]	10 to 100
CNC(=O)C(C(=O)NO)N(C)C(=O)c1ccc(-c2ccccc2)cc1C (stereo not drawn) [Compound 21, N-hydroxy-N′-methyl-2-{methyl[(3-methylbiphenyl-4-yl)carbonyl]amino}propanediamide]	> 100
CNC(=O)C(C(=O)NO)N(C)C(=O)c1ccc(OC(F)(F)F)cc1 (stereo not drawn) [Compound 22, N-hydroxy-N′-methyl-2-{methyl[4-(trifluoromethoxy)benzoyl]amino}propanediamide]	> 100
CNC(=O)C(C(=O)NO)N(C)C(=O)c1ccc(-c2ccc(C)cc2F)cc1 (stereo not drawn) [Compound 23, 2-{[(2′-fluoro-4′-methylbiphenyl-4-yl)carbonyl](methyl)amino}-N-hydroxy-N′-methylpropanediamide]	< 10
